The source of these data is US11014911B2, “CDK2 inhibitors” (Pfizer Inc., priority 2019, dated 2021).

Test [1] addresses CDK2/Cyclin E1 full length (Homo sapiens (Human), UniProt P24941). In words: CDK2/Cyclin E1 full length mobility shift assay. The test is classed as biochemical.
The target in a further test is GSK3β (H350L) (Homo sapiens (Human), UniProt P49841). The following applies: read-out: GSK3β Ki.
Chain of GSK3β (H350L) (P49841 whole entry, stated change not applied): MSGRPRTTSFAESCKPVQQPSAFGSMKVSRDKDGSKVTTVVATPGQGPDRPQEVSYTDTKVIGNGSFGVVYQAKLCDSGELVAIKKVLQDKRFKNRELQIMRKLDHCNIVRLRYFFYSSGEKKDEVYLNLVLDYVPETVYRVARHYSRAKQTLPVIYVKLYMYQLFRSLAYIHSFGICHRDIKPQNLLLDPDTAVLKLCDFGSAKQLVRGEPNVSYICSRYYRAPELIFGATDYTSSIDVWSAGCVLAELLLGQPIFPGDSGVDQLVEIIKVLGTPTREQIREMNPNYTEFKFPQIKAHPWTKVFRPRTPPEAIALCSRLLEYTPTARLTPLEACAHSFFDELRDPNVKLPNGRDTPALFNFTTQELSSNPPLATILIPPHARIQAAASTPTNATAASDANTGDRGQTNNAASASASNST

Procedure for GSK3β (H350L): The assay was initiated with the addition of ATP, following 15 minutes pre-incubation of enzyme and inhibitor at room temperature in the reaction mixture. The reaction was stopped after 30 minutes at room temperature by the addition of 50 μL of 80 mM EDTA.

For `CC[C@H](C)NC(=O)O[C@@H]1CC[C@H](c2cc(NC(=O)Cc3cnn(C)n3)n[nH]2)C1` [Example 330, (1R,3S)-3-(3-{[(2-methyl-2H-1,2,3-triazol-4-yl)acetyl]amino}-1H-pyrazol-5-yl)cyclopentyl (2S)-butan-2-ylcarbamate], the Ki was found to be 0.55 nM in test [1] and 86 nM at GSK3β (H350L).

Turning to `CC[C@H](C)NC(=O)O[C@@H]1CC[C@H](c2cc(NC(=O)Cc3cc(C)on3)n[nH]2)C1` [Example 332, (1R,3S)-3-(3-{[(5-methyl-1,2-oxazol-3-yl)acetyl]amino}-1H-pyrazol-5-yl)cyclopentyl (2S)-butan-2-ylcarbamate], the values for the Ki (in test [1]; on GSK3β (H350L)) were 1.05 nM and 61.3 nM, respectively.

In the case of `CC[C@H](C)NC(=O)O[C@@H]1CC[C@H](c2cc(NC(=O)Cc3ncc(C)o3)n[nH]2)C1` [Example 333, (1R,3S)-3-(3-{[(5-methyl-1,3-oxazol-2-yl)acetyl]amino}-1H-pyrazol-5-yl)cyclopentyl (2S)-butan-2-ylcarbamate], the Ki in test [1] amounted to 0.41 nM; at GSK3β (H350L) it was 63.2 nM.

Regarding `CC[C@H](C)NC(=O)O[C@@H]1CC[C@H](c2cc(NC(=O)Cc3ccnc(C)c3)n[nH]2)C1` [Example 335, (1R,3S)-3-(3-{[(2-methylpyridin-4-yl)acetyl]amino}-1H-pyrazol-5-yl)cyclopentyl (2S)-butan-2-ylcarbamate], the values for the Ki (in test [1]; at GSK3β (H350L)) were 0.41 nM and 23.9 nM, respectively.

Turning to `CC[C@H](C)NC(=O)O[C@@H]1CC[C@H](c2cc(NC(=O)Cc3cncc(C)n3)n[nH]2)C1` [Example 336, (1R,3S)-3-(3-{[(6-methylpyrazin-2-yl)acetyl]amino}-1H-pyrazol-5-yl)cyclopentyl (2S)-butan-2-ylcarbamate], the Ki stood at 0.39 nM in test [1] and 53.5 nM on GSK3β (H350L).

Take `CC[C@H](C)NC(=O)O[C@@H]1CC[C@H](c2cc(NC(=O)Cc3cnn(C)c3C)n[nH]2)C1` [Example 337, (1R,3S)-3-(3-{[(1,5-dimethyl-1H-pyrazol-4-yl)acetyl]amino}-1H-pyrazol-5-yl)cyclopentyl (2S)-butan-2-ylcarbamate]: the Ki amounted to 0.58 nM in test [1] and 94.9 nM on GSK3β (H350L).

In the case of `CC[C@H](C)NC(=O)O[C@@H]1CC[C@H](c2cc(NC(=O)Cc3cc(C)nn3C)n[nH]2)C1` [Example 338, (1R,3S)-3-(3-{[(1,3-dimethyl-1H-pyrazol-5-yl)acetyl]amino}-1H-pyrazol-5-yl)cyclopentyl (2S)-butan-2-ylcarbamate], the Ki in test [1] is 1.58 nM; at GSK3β (H350L), 94.4 nM.

With `CC[C@H](C)NC(=O)O[C@@H]1CC[C@H](c2cc(NC(=O)Cc3scnc3C)n[nH]2)C1` [Example 342, (1R,3S)-3-(3-{[(4-methyl-1,3-thiazol-5-yl)acetyl]amino}-1H-pyrazol-5-yl)cyclopentyl (2S)-butan-2-ylcarbamate], the Ki amounted to 0.74 nM in test [1] and 40 nM at GSK3β (H350L).

On to `CC[C@H](C)NC(=O)O[C@@H]1CC[C@H](c2cc(NC(=O)Cc3nc(C)cs3)n[nH]2)C1` [Example 343, (1R,3S)-3-(3-{[(4-methyl-1,3-thiazol-2-yl)acetyl]amino}-1H-pyrazol-5-yl)cyclopentyl (2S)-butan-2-ylcarbamate], for which the Ki in test [1] is 0.77 nM; at GSK3β (H350L), 26.1 nM.

As to `CC[C@H](C)NC(=O)O[C@@H]1CC[C@H](c2cc(NC(=O)Cc3ccc(OC)nc3)n[nH]2)C1` [Example 346, (1R,3S)-3-(3-{[(6-methoxypyridin-3-yl)acetyl]amino}-1H-pyrazol-5-yl)cyclopentyl (2S)-butan-2-ylcarbamate], the Ki in test [1] came to 0.26 nM; at GSK3β (H350L), 10.7 nM.

On to `CC[C@H](C)NC(=O)O[C@@H]1CC[C@H](c2cc(NC(=O)Cc3cncc(OC)n3)n[nH]2)C1` [Example 348, (1R,3S)-3-(3-{[(6-methoxypyrazin-2-yl)acetyl]amino}-1H-pyrazol-5-yl)cyclopentyl (2S)-butan-2-ylcarbamate], for which the Ki in test [1] was 0.59 nM; on GSK3β (H350L) it was 54.1 nM.

As to `CC[C@H](C)NC(=O)O[C@@H]1CC[C@H](c2cc(NC(=O)Cc3cnn(C(C)C)c3)n[nH]2)C1` [Example 349, (1R,3S)-3-[3-({[1-(propan-2-yl)-1H-pyrazol-4-yl]acetyl}amino)-1H-pyrazol-5-yl]cyclopentyl (2S)-butan-2-ylcarbamate], the Ki in test [1] came out at 0.4 nM; on GSK3β (H350L), 57.3 nM.

In the case of `CC[C@H](C)NC(=O)O[C@@H]1CC[C@H](c2cc(NC(=O)Cc3sc(C)nc3C)n[nH]2)C1` [Example 352, (1R,3S)-3-(3-{[(2,4-dimethyl-1,3-thiazol-5-yl)acetyl]amino}-1H-pyrazol-5-yl)cyclopentyl (2S)-butan-2-ylcarbamate], the results for the Ki (in test [1]; at GSK3β (H350L)) were 0.82 nM and 58.4 nM, respectively.

Regarding `CC[C@H](C)NC(=O)O[C@@H]1CC[C@H](c2cc(NC(=O)Cc3ncc(OC)s3)n[nH]2)C1` [Example 353, (1R,3S)-3-(3-{[(5-methoxy-1,3-thiazol-2-yl)acetyl]amino}-1H-pyrazol-5-yl)cyclopentyl (2S)-butan-2-ylcarbamate], the Ki in test [1] is 0.5 nM; on GSK3β (H350L) it was 29.5 nM.

For `CC[C@H](C)NC(=O)O[C@@H]1CC[C@H](c2cc(NC(=O)Cc3cn4ccsc4n3)n[nH]2)C1` [Example 355, (1R,3S)-3-{3-[(imidazo[2,1-b][1,3]thiazol-6-ylacetyl)amino]-1H-pyrazol-5-yl}cyclopentyl (2S)-butan-2-ylcarbamate], the Ki in test [1] was 1.13 nM; on GSK3β (H350L), 18.1 nM.

For `CC[C@H](C)NC(=O)O[C@@H]1CC[C@H](c2cc(NC(=O)c3ccnn3CCN(C)C)[nH]n2)C1` [Example 356, (1R,3S)-3-{5-[({1-[2-(dimethylamino)ethyl]-1H-pyrazol-5-yl}carbonyl)amino]-1H-pyrazol-3-yl}cyclopentyl (2S)-butan-2-ylcarbamate], the inhibitory constant (Ki) in test [1] was 0.67 nM; at GSK3β (H350L), 148 nM.

For `CC[C@H](C)NC(=O)O[C@@H]1CC[C@H](c2cc(NC(=O)Cc3cn4nc(C)sc4n3)n[nH]2)C1` [Example 359, (1R,3S)-3-(3-{[(2-methylimidazo[2,1-b][1,3,4]thiadiazol-6-yl)acetyl]amino}-1H-pyrazol-5-yl)cyclopentyl (2S)-butan-2-ylcarbamate], the Ki was found to be 0.39 nM in test [1] and 28.5 nM at GSK3β (H350L).

On to `CC[C@H](C)NC(=O)O[C@@H]1CC[C@H](c2cc(NC(=O)Cc3cccc4c3CN(C)C4=O)n[nH]2)C1` [Example 361, (1R,3S)-3-(3-{[(2-methyl-1-oxo-2,3-dihydro-1H-isoindol-4-yl)acetyl]amino}-1H-pyrazol-5-yl)cyclopentyl (2S)-butan-2-ylcarbamate], for which the Ki in test [1] came out at 0.94 nM; at GSK3β (H350L), 25.6 nM.

On to `CC[C@H](C)NC(=O)O[C@@H]1CC[C@H](c2cc(NC(=O)Cc3cnc(C(F)(F)F)cn3)n[nH]2)C1` [Example 363, (1R,3S)-3-[3-({[5-(trifluoromethyl)pyrazin-2-yl]acetyl}amino)-1H-pyrazol-5-yl]cyclopentyl (2S)-butan-2-ylcarbamate], for which the values for the Ki (in test [1]; on GSK3β (H350L)) were 0.35 nM and 52 nM, respectively.

For `CC[C@H](C)NC(=O)O[C@@H]1CC[C@H](c2cc(NC(=O)Cc3ccc(C(=O)N(C)C)cc3)n[nH]2)C1` [Example 364, (1R,3S)-3-[3-({[4-(dimethylcarbamoyl)-phenyl]acetyl}amino)-1H-pyrazol-5-yl]cyclopentyl (2S)-butan-2-ylcarbamate], the Ki amounted to 0.82 nM in test [1] and 59.9 nM at GSK3β (H350L).

For the compound `CCc1nn2cc(CC(=O)Nc3cc([C@H]4CC[C@@H](OC(=O)N[C@@H](C)CC)C4)[nH]n3)nc2s1` [Example 367, (1R,3S)-3-(3-{[(2-ethylimidazo[2,1-b][1,3,4]thiadiazol-6-yl)acetyl]amino}-1H-pyrazol-5-yl)cyclopentyl (2S)-butan-2-ylcarbamate], the Ki in test [1] is 0.27 nM; at GSK3β (H350L), 23.5 nM.

For the compound `CC[C@H](C)NC(=O)O[C@@H]1CC[C@H](c2cc(NC(=O)Cc3cc(C)ccc3S(C)(=O)=O)n[nH]2)C1` [Example 371, (1R,3S)-3-[3-({[5-methyl-2-(methylsulfonyl)phenyl]acetyl}amino)-1H-pyrazol-5-yl]cyclopentyl (2S)-butan-2-ylcarbamate], the Ki in test [1] stood at 0.32 nM; at GSK3β (H350L), 161 nM.

Turning to `CC[C@H](C)NC(=O)O[C@@H]1CC[C@H](c2cc(NC(=O)Cc3cccc(C)c3S(C)(=O)=O)n[nH]2)C1` [Example 372, (1R,3S)-3-[3-({[3-methyl-2-(methylsulfonyl)phenyl]acetyl}amino)-1H-pyrazol-5-yl]cyclopentyl (2S)-butan-2-ylcarbamate], the values for the inhibition constant (Ki) (in test [1]; on GSK3β (H350L)) were 0.85 nM and 115 nM, respectively.

`CC[C@H](C)NC(=O)O[C@@H]1CC[C@H](c2cc(NC(=O)Cc3cc(C)ncc3S(C)(=O)=O)n[nH]2)C1` [Example 373, (1R,3S)-3-[3-({[2-methyl-5-(methylsulfonyl)pyridin-4-yl]acetyl}amino)-1H-pyrazol-5-yl]cyclopentyl (2S)-butan-2-ylcarbamate]: the Ki was 0.47 nM in test [1] and 74.3 nM at GSK3β (H350L).

For the compound `CC[C@H](C)NC(=O)O[C@@H]1CC[C@H](c2cc(NC(=O)Cc3ccccc3S(=O)(=O)NC)n[nH]2)C1` [Example 374, (1R,3S)-3-[3-({[2-(methylsulfamoyl)phenyl]acetyl}amino)-1H-pyrazol-5-yl]cyclopentyl (2S)-butan-2-ylcarbamate], the Ki in test [1] stood at 0.32 nM; at GSK3β (H350L) it was 10.8 nM.

`CC[C@H](C)NC(=O)O[C@@H]1CC[C@H](c2cc(NC(=O)Cc3cc(OC)ncc3S(C)(=O)=O)n[nH]2)C1` [Example 375, (1R,3S)-3-[3-({[2-methoxy-5-(methylsulfonyl)pyridin-4-yl]acetyl}amino)-1H-pyrazol-5-yl]cyclopentyl (2S)-butan-2-ylcarbamate]: the values for the Ki (in test [1]; on GSK3β (H350L)) were 0.31 nM and 116 nM, respectively.

Regarding `CC[C@H](C)NC(=O)O[C@@H]1CC[C@H](c2cc(NC(=O)Cc3ccc(COC)cc3S(C)(=O)=O)[nH]n2)C1` [Example 376, (1R,3S)-3-[5-({[4-(methoxymethyl)-2-(methylsulfonyl)phenyl]acetyl}amino)-1H-pyrazol-3-yl]cyclopentyl (2S)-butan-2-ylcarbamate], the Ki was 0.4 nM in test [1] and 99.3 nM at GSK3β (H350L).

By Ki is commonly meant a measure of affinity in units of concentration, obtained from inhibition or displacement.
